According to publication PMC11879040, “Advancing systemic toxicity risk assessment: Evaluation of a NAM-based toolbox approach” (Toxicological Sciences, 2024):
Like-named read-outs stand apart in the source and are kept apart here.

Experiments:
[1] = molecular target: T1, 5-hydroxytryptamine receptor 3A, HTR3A (h) (Homo sapiens, UniProt P46098); conditions: control MDL 72222
T1 sequence (P46098 24-478): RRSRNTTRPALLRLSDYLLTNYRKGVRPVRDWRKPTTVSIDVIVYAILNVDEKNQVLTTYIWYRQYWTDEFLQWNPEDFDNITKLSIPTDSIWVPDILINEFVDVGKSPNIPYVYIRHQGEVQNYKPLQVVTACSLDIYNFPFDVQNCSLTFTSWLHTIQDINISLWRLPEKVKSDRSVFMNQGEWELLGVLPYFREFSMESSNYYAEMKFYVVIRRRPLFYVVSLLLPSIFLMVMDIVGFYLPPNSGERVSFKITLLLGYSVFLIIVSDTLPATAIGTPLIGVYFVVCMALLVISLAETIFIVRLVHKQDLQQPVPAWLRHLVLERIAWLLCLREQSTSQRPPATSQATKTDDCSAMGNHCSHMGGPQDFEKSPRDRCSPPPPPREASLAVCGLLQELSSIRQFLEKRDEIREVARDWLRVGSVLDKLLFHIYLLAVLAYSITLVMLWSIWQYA

[2] = test system: Gamma-aminobutyric acid receptor subunit alpha-1 BZD site, GABRA1A (r); assay type: binding, rat
Tubulin (r) = experiment: IPP Tubulin binding; design: species or system rat
[3] = molecular target: Cannabinoid receptor 1, CNR1 (h) (Homo sapiens, UniProt P21554); assay type: binding; conditions: control CP 55940
Chain of Cannabinoid receptor 1, CNR1 (h) (P21554 whole entry): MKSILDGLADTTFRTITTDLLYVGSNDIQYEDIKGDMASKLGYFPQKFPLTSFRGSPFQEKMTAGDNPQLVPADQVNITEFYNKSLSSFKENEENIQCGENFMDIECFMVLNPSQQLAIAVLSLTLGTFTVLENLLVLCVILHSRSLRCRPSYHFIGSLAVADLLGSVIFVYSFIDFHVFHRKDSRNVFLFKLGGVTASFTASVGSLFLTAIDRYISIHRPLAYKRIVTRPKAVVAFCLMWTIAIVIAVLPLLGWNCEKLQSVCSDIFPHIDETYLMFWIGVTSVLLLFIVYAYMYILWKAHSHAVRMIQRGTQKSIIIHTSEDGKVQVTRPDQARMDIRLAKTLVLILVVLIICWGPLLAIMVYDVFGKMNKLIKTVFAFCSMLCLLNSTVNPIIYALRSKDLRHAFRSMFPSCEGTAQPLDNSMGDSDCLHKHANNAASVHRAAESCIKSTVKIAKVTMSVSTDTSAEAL

[4] = molecular target: T2, Endothelin-1 receptor, EDNRA (h) (Homo sapiens, UniProt P25101); conditions: control endothelin-1
T2 sequence (P25101 21-427): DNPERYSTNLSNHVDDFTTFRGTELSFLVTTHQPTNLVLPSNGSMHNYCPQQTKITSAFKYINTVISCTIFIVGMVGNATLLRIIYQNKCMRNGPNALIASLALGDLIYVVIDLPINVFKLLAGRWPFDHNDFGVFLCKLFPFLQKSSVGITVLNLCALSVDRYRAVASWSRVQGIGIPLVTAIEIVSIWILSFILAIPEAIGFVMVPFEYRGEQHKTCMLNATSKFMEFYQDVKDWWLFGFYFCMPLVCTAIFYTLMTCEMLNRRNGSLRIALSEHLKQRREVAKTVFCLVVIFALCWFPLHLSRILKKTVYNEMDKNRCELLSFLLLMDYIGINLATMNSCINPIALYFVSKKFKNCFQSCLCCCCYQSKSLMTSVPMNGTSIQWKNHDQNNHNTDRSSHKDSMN

HepG2 cells = experiment: Cell stress panel (CSP), 24 h, 8 concentrations, BIFROST global PoD; assay type: cell-based
Experimental: Compounds were tested using the previously developed cell stress panel ([Hatherell et al. 2020]) and the expanded biomarker panel outlined in Middleton et al. HepG2 cells were treated with all compounds for 24 h across 8 concentrations prior to biomarker analysis. The same plate layout and number of replicates (3 biological and 2 technical) were used as previously for each assay within the panel.

HepaRG cells = experiment: High-throughput transcriptomics (HTTr, TempO-Seq), HepaRG, 24 h; assay type: cell-based, human; conditions: HepaRG; for pod_httr_bifrost PoD: HTTr BIFROST PoD; for podl_path_minbmd PoD: HTTr minimum pathway BMD(L)
Experimental: HepG2, HepaRG, and MCF7 cells were treated with each compound for 24 h across a dose range of 7 concentrations and lysed using TempO-Seq lysis buffer (BioSpyder Technologies, proprietary kit, see [Middleton et al. 2022] for method details). Sequencing was performed using TempO-Seq (BioClavis) version 2 of the human whole transcriptome panel and analyzed as described previously in Middleton et al.

[5] = molecular target: Angiotensin-converting enzyme 2, ACE2 (h) (Homo sapiens, UniProt Q9BYF1); experiment: IPP ACE2 enzymatic activity; assay type: biochemical; conditions: 10 uM; control captopril
Chain of Angiotensin-converting enzyme 2, ACE2 (h) (Q9BYF1 18-805): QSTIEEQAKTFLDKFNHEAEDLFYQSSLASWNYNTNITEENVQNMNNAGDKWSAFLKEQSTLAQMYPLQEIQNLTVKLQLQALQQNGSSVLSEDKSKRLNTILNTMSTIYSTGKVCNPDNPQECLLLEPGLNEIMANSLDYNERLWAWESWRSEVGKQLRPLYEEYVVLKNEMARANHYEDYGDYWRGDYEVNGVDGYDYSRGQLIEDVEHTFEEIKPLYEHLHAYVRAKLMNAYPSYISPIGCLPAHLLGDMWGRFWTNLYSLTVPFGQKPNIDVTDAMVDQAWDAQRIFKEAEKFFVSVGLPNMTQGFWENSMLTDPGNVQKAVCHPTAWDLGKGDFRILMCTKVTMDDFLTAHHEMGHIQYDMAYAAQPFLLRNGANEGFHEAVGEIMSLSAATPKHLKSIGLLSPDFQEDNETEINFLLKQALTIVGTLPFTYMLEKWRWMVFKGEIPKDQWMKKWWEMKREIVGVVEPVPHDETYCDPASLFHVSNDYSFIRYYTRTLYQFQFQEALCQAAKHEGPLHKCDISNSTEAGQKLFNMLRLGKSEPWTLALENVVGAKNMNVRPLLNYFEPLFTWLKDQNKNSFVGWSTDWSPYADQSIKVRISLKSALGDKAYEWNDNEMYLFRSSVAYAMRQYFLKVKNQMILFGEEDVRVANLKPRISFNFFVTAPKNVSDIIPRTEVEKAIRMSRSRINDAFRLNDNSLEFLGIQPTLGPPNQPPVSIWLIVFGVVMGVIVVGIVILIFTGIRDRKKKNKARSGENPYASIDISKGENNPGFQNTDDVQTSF

[6] = molecular target: T3, Angiotensin II receptor Type-1, AGTR1 (h) (Homo sapiens, UniProt P30556); experiment: IPP AGTR1 binding; conditions: ligand/control Saralasin
T3 construct: purchased Eurofins Cerep (SafetyScreen44-based IPP panel)
T3 sequence (P30556 1-359): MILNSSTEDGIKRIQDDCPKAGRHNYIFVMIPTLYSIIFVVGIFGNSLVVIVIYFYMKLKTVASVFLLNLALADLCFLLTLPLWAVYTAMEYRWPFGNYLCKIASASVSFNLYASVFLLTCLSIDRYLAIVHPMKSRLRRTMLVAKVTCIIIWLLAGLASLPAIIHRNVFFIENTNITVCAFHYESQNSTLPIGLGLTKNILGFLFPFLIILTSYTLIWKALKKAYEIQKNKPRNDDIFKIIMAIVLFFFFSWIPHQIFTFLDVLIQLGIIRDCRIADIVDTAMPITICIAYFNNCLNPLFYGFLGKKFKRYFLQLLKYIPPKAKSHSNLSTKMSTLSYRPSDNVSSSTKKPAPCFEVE

[7] = molecular target: Vasopressin V1a receptor, AVPR1A (h) (Homo sapiens, UniProt P37288); experiment: IPP AVPR1A binding (agonist radioligand); conditions: ligand/control [d(CH2)5 1,Tyr(Me)2]-AVP
Chain of Vasopressin V1a receptor, AVPR1A (h) (P37288 whole entry): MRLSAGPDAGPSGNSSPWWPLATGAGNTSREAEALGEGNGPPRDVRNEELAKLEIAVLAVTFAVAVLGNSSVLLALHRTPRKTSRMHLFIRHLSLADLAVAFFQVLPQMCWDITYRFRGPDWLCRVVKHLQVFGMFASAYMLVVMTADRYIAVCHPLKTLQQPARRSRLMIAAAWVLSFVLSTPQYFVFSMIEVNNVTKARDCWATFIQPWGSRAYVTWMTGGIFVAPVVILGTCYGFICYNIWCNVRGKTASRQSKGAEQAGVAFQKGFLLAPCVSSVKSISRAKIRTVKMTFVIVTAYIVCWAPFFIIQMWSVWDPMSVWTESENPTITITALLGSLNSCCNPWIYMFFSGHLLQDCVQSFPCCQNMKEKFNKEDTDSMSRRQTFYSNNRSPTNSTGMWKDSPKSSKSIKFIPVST

[8] = molecular target: 5-hydroxytryptamine receptor 2A, HTR2A (h) (Homo sapiens, UniProt P28223); assay type: binding
Chain of 5-hydroxytryptamine receptor 2A, HTR2A (h) (P28223 whole entry): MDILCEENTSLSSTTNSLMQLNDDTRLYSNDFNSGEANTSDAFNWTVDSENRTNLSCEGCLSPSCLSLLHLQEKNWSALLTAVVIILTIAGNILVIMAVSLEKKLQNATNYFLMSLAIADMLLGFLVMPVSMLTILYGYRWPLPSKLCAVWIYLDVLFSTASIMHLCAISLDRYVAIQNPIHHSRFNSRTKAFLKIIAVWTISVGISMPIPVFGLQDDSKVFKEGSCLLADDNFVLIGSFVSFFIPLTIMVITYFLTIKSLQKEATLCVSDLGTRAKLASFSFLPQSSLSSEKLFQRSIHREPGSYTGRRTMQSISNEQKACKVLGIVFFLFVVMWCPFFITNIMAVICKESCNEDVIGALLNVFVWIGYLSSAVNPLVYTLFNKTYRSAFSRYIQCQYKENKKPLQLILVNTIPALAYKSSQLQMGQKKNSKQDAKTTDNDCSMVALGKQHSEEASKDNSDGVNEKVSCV

[9] = molecular target: T4, Peroxisome proliferator-activated receptor alpha, PPARA (h) (Homo sapiens, UniProt Q07869); experiment: IPP PPARA coactivator recruitment (agonist); assay type: biochemical; conditions: 10 uM, GW 7647 for control
T4 sequence (Q07869 1-468): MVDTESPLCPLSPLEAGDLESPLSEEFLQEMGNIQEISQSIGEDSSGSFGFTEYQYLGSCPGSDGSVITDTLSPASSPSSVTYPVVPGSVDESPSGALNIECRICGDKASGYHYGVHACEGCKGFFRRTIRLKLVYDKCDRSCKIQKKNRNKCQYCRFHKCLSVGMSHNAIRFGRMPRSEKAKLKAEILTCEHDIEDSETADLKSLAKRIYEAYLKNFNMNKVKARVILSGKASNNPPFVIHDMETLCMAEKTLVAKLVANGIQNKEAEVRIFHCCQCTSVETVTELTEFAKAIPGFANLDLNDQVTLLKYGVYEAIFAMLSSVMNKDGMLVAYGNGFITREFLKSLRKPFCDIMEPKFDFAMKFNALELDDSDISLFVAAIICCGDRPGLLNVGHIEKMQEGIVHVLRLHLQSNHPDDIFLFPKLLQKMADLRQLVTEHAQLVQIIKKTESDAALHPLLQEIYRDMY

[10] = IPP screening at 10 uM, control diazepam
[11] = 10 uM, ligand/control Colchicine
[12] = IPP screening at 10 uM, control (±)DOI

CCOP(=S)(OCC)Oc1nc(Cl)c(Cl)cc1Cl [Chlorpyrifos, O,O-Diethyl O-(3,5,6-trichloropyridin-2-yl) phosphorothioate]
Specific binding ([1]; IPP screening at 10 uM): -1.0% | Specific binding [2, 10]: -11.0% | IPP screening %, Specific binding (Tubulin (r); [11]): -20.0% | Specific binding ([3]; IPP screening at 10 uM): 26.0% | Specific binding ([4]; IPP screening at 10 uM): 0.1% | pod_cell_stress PoD (HepG2 cells; HepG2, cell stress panel PoD): 0.578 µM | pod_httr_bifrost PoD (HepaRG cells): 0.07063 µM | podl_path_minbmd PoD (HepaRG cells): 1.957 µM | IPP screening %, Enzymatic activity [5]: -18.8% | IPP screening %, Specific binding ([6]; 10 uM): 0.5% | IPP screening %, Specific binding ([7]; 10 uM): -6.8% | Specific binding [8, 12]: 52.0%

CC(C)(C)c1ccc(CCOc2ncnc3ccccc23)cc1 [Fenazaquin, 4-[2-(4-tert-Butylphenyl)ethoxy]quinazoline]
Specific binding ([1]; IPP screening at 10 uM): -0.1% | Specific binding [2, 10]: 7.6% | IPP screening %, Specific binding (Tubulin (r); [11]): -2.0% | Specific binding ([3]; IPP screening at 10 uM): 57.0% | Specific binding ([4]; IPP screening at 10 uM): 2.7% | IPP screening %, Coactivator recruitment [9]: 1.2% | Bioactivity Observations: cell stress panel (HepG2 cells): Mechanism of action is insect-specific. Cell stress panel PoD is extrapolated beyond lowest concentration for leading biomarkers which suggests the concentration range tested was not low enough. | pod_cell_stress PoD (HepG2 cells; HepG2, cell stress panel PoD): 0.0001306 µM | pod_httr_bifrost PoD (HepaRG cells): 0.006087 µM | podl_path_minbmd PoD (HepaRG cells): 0.07466 µM | IPP screening %, Enzymatic activity [5]: -29.1% | IPP screening %, Specific binding ([6]; 10 uM): 8.6% | IPP screening %, Specific binding ([7]; 10 uM): -5.5% | Specific binding [8, 12]: 20.7%

CC1(C)O[C@@H]2[C@@H](CO[C@@]3(COS(N)(=O)=O)OC(C)(C)O[C@@H]23)O1 [Topiramate, [(3aS,5aR,8aR,8bS)-2,2,7,7-Tetramethyltetrahydro-2H,3aH,7H-bis[1,3]dioxolo[4,5-b:4',5'-d]pyran-3a-yl]methyl sulfamate (non-preferred name)]
Specific binding ([1]; IPP screening at 100 uM): -1.3% | Specific binding ([2]; IPP screening at 100 uM, control diazepam): 9.7% | IPP screening %, Specific binding (Tubulin (r); 100 uM, ligand/control Colchicine): 5% | Specific binding ([3]; IPP screening at 100 uM): 10.5% | Specific binding ([4]; IPP screening at 100 uM): 5.1% | pod_cell_stress PoD (HepG2 cells; HepG2, cell stress panel PoD): 140.54 µM | pod_httr_bifrost PoD (HepaRG cells): 28.4144 µM | podl_path_minbmd PoD (HepaRG cells): 48.7054 µM | IPP screening %, Specific binding ([6]; 100 uM): -7.3% | IPP screening %, Specific binding ([7]; 100 uM): 7.2% | Specific binding ([8]; IPP screening at 100 uM; control ±)DOI): 0.9%

(4S,4aR,5S,5aR,6S,12aS)-4-(Dimethylamino)-3,5,6,10,12,12a-hexahydroxy-6-methyl-1,11-dioxo-1,4,4a,5,5a,6,11,12a-octahydrotetracene-2-carboxamide--hydrogen chloride (1/1) [Oxytetracycline hydrochloride]
Specific binding ([1]; IPP screening at 10 uM): -6.5% | Specific binding [2, 10]: -0.4% | IPP screening %, Specific binding (Tubulin (r); [11]): -3.0% | Specific binding ([3]; IPP screening at 10 uM): 25.7% | Specific binding ([4]; IPP screening at 10 uM): -1.2% | IPP screening %, Coactivator recruitment [9]: -0.7% | IPP screening %, Enzymatic activity [5]: -18.6% | IPP screening %, Specific binding ([6]; 10 uM): -8.1% | IPP screening %, Specific binding ([7]; 10 uM): 1.6%

mixture of 2- and 3-tert-butyl-4-methoxyphenol [Butylated Hydroxyanisole]
Specific binding ([1]; IPP screening at 10 uM): 15.3% | Specific binding [2]: -10.9% | IPP screening %, Specific binding (Tubulin (r)): -5.0% | Specific binding ([3]; IPP screening at 10 uM): -27.5% | Specific binding ([4]; IPP screening at 10 uM): -10.4% | IPP screening %, Coactivator recruitment [9]: -0.3% | pod_cell_stress PoD (HepG2 cells): 32.7666 µM | IPP screening %, Enzymatic activity [5]: -6.0% | IPP screening %, Specific binding ([6]; 10 uM): -1.0% | IPP screening %, Specific binding ([7]; 10 uM): 15.2% | Specific binding [8, 12]: 74.3%
